Where “and” joins values, the source holds several entries; their conditions need not be identical. Equal entries are not always repeated.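 Assay format: 96-well plates, 48-hour exposure. GI50 is the concentration that inhibits growth by half. TGI denotes the concentration required for complete inhibition of growth.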
Columns and labels:
Assay in all cases: inhibition of tumour cell growth, NCI panel, 48 h
[1] = test system: EKVX NSCLC
[2] = test system: HCT-15 colon
[3] = test system: OVCAR-4 ovarian
[4] = test system: CAKI-1 renal
[5] = test system: A549 NSCLC
[6] = test system: KM12 colon
[7] = test system: OVCAR-5 ovarian
[8] = test system: 786-0 renal
[9] = test system: MDA-MB-231 breast
[10] = test system: PC-3 prostate

SMILES	TGI [1]	TGI [2]	TGI [3]	TGI [4]	TGI [5]	TGI [6]	TGI [7]	TGI [8]	GI50 [9]	TGI [9]	GI50 [2]	GI50 [3]	GI50 [10]	TGI [10]	GI50 [7]	GI50 [8]	GI50 [1]	GI50 [5]	GI50 [6]	GI50 [4]
Nc1ncnc2c1nnn2C1C=C(CO)C(O)C1O (configuration not stated)	> 100 µM	> 100 µM	> 100 µM	> 100 µM	> 100 µM	> 100 µM	> 100 µM	> 100 µM												
COc1cc(C2CC(=O)Nc3c2cc(Br)c2ccccc32)cc(Br)c1OC (configuration not stated)		> 100 µM	1.44 µM				> 100 µM	3.79 µM	2.66 µM	7.42 µM	0.907 µM	0.349 µM	2.62 µM	> 100 µM	3.02 µM	1.76 µM				
O=C(COc1ccc(Cl)cc1)N1CCN(C(=O)COc2ccc(Cl)cc2)c2ccccc21	> 100 µM				> 100 µM	> 100 µM	> 100 µM	> 100 µM												
Nc1ncccc1-c1nc2ccc(-c3ccccc3)nc2n1-c1ccc(C2(N)CCC2)cc1	16.2 µM	4.27 µM	18.7 µM		6.81 µM	6.93 µM	8.23 µM	1.6 µM	1.46 µM	3.39 µM	1.34 µM	4.06 µM	0.0533 µM	3.39 µM	1.53 µM	0.212 µM	1.92 µM	1.69 µM	1.78 µM	
O=C(O)COc1ccc(C(=O)/C(SS/C(C(=O)c2ccc(OCC(=O)O)c(Cl)c2Cl)=C2\C=C(c3ccc(Br)cc3)SS2)=C2/C=C(c3ccc(Br)cc3)SS2)c(Cl)c1Cl	> 100 µM	> 40.9 µM	> 50.1 µM	99.4 µM	> 100 µM	28.4 µM	> 100 µM	> 45.3 µM												
C/C(=C\Cc1cc(O)ccc1O)CCc1c(C)c(O)c(O)c(C=O)c1C	> 100 µM	> 100 µM	> 100 µM	85.6 µM	92.8 µM	44.3 µM		62.2 µM												
O=C(O)[C@@H](NS(=O)(=O)c1ccc2ccccc2c1)c1ccccc1		> 100 µM	> 100 µM	> 100 µM			> 100 µM	> 100 µM												
Nc1ccc(C(=O)NN2C(=O)C(Cl)C2c2cccc(O)c2)cc1 (configuration not stated)	46.6 µM	25.3 µM	34 µM	41.9 µM	39.3 µM	22.5 µM	41.9 µM	29.5 µM												
C#C[C@H]1CCCCCC1O (some centres not stated)	> 100 µM	> 100 µM	> 100 µM	> 100 µM	> 100 µM	> 100 µM	> 100 µM	> 100 µM												
Clc1ccccc1NN(Cc1ccncc1)c1ccccc1Cl	30.1 µM	34.3 µM	25.2 µM		29.8 µM	36 µM	38.4 µM	26.6 µM		27.8 µM				28.9 µM						
Cc1c2ccncc2c(C)c2c1c1cc(CO)ccc1n2C	5.98 µM	10 µM	1.82 µM		2.81 µM	20 µM	0.984 µM	5.07 µM	0.456 µM	2.96 µM	0.354 µM	0.285 µM	0.294 µM	1.39 µM	0.267 µM	0.596 µM	0.719 µM	0.416 µM	0.492 µM	
CCC[CH2][Sn]([CH2]CCC)([O]C(=O)/C=C/c1ccccc1F)[O]C(=O)/C=C/c1ccccc1F	2.79 µM	1.95 µM	2.9 µM	1.79 µM	3.91 µM	2.72 µM	2.83 µM	1.17 µM			0.74 µM	1.45 µM			1.5 µM	0.384 µM	1.43 µM	1.88 µM	1.38 µM	0.436 µM
COC(=O)C#CCC1CCCC1C1SCCS1 (configuration not stated)	> 100 µM		> 100 µM	> 100 µM	> 100 µM	> 100 µM	> 100 µM	> 100 µM												
CC(=O)Nc1ccc(C(=O)NN2C(=O)C(Cl)C2c2ccc(O)cc2)cc1 (configuration not stated)	> 100 µM	> 100 µM	> 100 µM	> 100 µM	> 100 µM		> 100 µM	> 100 µM												
CCC1C(=O)OCc2c1cc1n(c2=O)C(CC)c2c-1nc1ccccc1c2Cl (configuration not stated)	80.4 µM	> 100 µM	> 100 µM	> 100 µM	> 100 µM	96.6 µM	54.6 µM	33.9 µM												
CCN(CC)CCCC(C)Nc1c(Sc2cnc3cc(Cl)ccc3c2NC(C)CCCN(CC)CC)cnc2cc(Cl)ccc12 (configuration not stated)		3.16 µM	3.22 µM	2.86 µM	3.24 µM	3.79 µM	3.34 µM	3.01 µM												
COc1ccc(-c2onc(-c3c(C)cc(C)cc3C)c2C2=NCCN2)cc1	> 100 µM	> 100 µM	> 100 µM	> 100 µM	> 100 µM	> 100 µM	> 100 µM	> 100 µM												
O=C(N/C(=C\c1cc(Cl)ccc1Cl)c1nc2ccc(Cl)cc2[nH]1)c1ccccc1	50.6 µM	31 µM	68.6 µM	66.4 µM	38.1 µM	29.4 µM	60.1 µM	71.9 µM												
Cc1oc2c(c1C(=O)N1CC[C@@H](N)C1)C(=O)c1c(c(O)c3ccccc3c1O)C2=O		11.9 µM	11.8 µM	11.4 µM		14.4 µM	18.9 µM	17.3 µM	2.26 µM	9.06 µM	1.49 µM	2.92 µM	1.98 µM	10.9 µM	5.2 µM	3.93 µM			2.98 µM	0.611 µM
COc1cccc2c1[C@H]1CO[C@H]3C4C[C@H](C(=O)O)C([C@@H](C2)N13)N4C (some centres not stated)	5.94 µM and 6.16 µM	6.12 µM	8.21 µM and 10.5 µM	6.06 µM and 28.8 µM	99 µM	1.64 µM	4.94 µM and > 24.3 µM	4.67 µM				0.99 µM					1.87 µM	10.1 µM	5.21 µM and 0.685 µM	2.17 µM and 2.9 µM
CCN(CC)CCC(CNc1c(C)cnc2cc(Cl)ccc12)c1ccc(Cl)cc1 (configuration not stated)	19.5 µM		21.1 µM	16.8 µM	32.2 µM	25.3 µM	24 µM	22.6 µM				4.17 µM	10.7 µM	24 µM	8.93 µM	8.53 µM	5.46 µM	16 µM	11 µM	3.51 µM
